In experiment [1] the target is T1, human placenta GST (hGST) (Homo sapiens, UniProt P09211).
T1 construct: human placenta GST (hGST); purchased Sigma-Aldrich; host or cells: human placenta
As to the kind of experiment: Glutathione S-transferase inhibition assay (Habig method), hGST. The following applies: for type of inhibition of hGST: Dixon plots; for Ki: determined for compounds with IC50 < 33 μM, substrate 200, 400, 800 μM, read-out: Enzyme Inhibition hGST Ki; for IC50: mean ± SEM of three independent measurements, / = No activity, read-out: Enzyme Inhibition hGST IC50. It counts as biochemical. Here is the method: (§1) The activities of the GSTs were determined according to the method described by Habig et al. (1974) using a cell imaging multi-mode reader (Cytation 3; BioTek, Winooski, VT, USA). The stock solutions of inhibitors were prepared as described for the ChE inhibition assays. Then the stock solutions of the potential inhibitors and negative controls were added to the wells, and progressively diluted in 100 mM sodium phosphate buffer (pH 6.5) to the final volume of 50 μL. 1-Chloro-2,4-dinitrobenzene (Sigma-Aldrich, St. Louis, MO, USA) was dissolved in ethanol to 50 mM, and then diluted with 100 mM sodium phosphate buffer (pH 6.5) to a final concentration of 4 mM. This solution (50 μL) and 2 mM reduced glutathione (100 μL) in the same buffer were added into the microtiter plate wells. Two GSTs were used as the enzyme sources: horse liver GST (hlGST) and human placenta GST (hGST) (Sigma-Aldrich, St. Louis, MO, USA). These were dissolved in 100 mM sodium phosphate buffer (pH 6.5), and 50 μL of these enzyme solutions were added into the wells to start the reaction. The final enzyme concentration was 0.044 U/mL. The blank reactions without the inhibitors were run with the appropriate dilutions of the solvents in which the tested compounds were initially diluted (100% MeOH or 5% aqueous DMSO), and the readings were corrected according to the appropriate blanks. The reactions were followed spectrophotometrically at 340 nm at 25 °C over 4 min. Each measurement was repeated at least three times. […] The data were analysed using the OriginPro software (OriginPro 2020, OriginLab Corporation, Northampton, MA, USA).

For experiment [2], the target named is T2, horse serum BChE (hsBChE) (Equus caballus, UniProt P81908).
T2 construct: horse serum BChE (hsBChE); purchased Sigma-Aldrich; host or cells: horse serum
T2 sequence (P81908 whole entry): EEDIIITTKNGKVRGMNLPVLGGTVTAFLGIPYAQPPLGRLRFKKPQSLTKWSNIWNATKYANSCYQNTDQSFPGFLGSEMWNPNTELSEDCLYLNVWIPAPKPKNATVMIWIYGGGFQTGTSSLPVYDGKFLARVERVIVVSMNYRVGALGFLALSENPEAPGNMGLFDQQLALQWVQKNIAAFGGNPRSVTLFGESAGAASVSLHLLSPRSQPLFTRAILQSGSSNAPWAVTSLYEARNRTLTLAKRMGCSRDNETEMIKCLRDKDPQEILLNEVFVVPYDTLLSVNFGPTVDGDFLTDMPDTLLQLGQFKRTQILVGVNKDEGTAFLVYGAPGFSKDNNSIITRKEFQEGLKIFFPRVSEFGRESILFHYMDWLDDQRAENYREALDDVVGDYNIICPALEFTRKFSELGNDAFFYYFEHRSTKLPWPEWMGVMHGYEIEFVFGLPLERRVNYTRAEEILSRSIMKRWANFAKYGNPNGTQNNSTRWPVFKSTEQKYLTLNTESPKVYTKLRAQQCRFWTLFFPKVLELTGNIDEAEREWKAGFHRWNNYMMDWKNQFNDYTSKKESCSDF
Description: Cholinesterase inhibition assay (modified Ellman method), hsBChE. It counts as biochemical. To be noted: for type of inhibition of hsBChE: Dixon plots; for IC50: mean ± SEM of three independent measurements, / = No activity, read-out: Enzyme Inhibition hsBChE IC50. Here is the method: (§2) The activities of the ChEs were determined using a modification of the Ellman method adapted for microtiter plates, as described in [47]. Stock solutions of complexes 4, 5, 6, 7, 8 and 10, as well as of ligands L2 and L3 (1 mg/mL) were prepared in 100% MeOH, whereas stock solutions of complexes 2 and 3 (1 mg/mL) were prepared in 5% DMSO in deionised water. Positive control (1 mg/mL neostigmine bromide; Sigma-Aldrich, St. Louis, MO, USA) was also prepared in 100% MeOH. The stock solutions of the potential inhibitors and the positive and negative controls were added to the wells, and progressively diluted in 100 mM potassium phosphate buffer (pH 7.4) to the final volume of 50 μL. Then, 100 μL acetylthiocholine chloride (1 mM) and 5,5′-dithiobis-2-nitrobenzoic acid (0.5 mM) in 100 mM potassium phosphate buffer (pH 7.4) were added into the microtiter plate wells. Three ChEs were used as the enzyme sources: electric eel AChE (eeAChE); human recombinant AChE (hrAChE), and horse serum BChE (hsBChE) (all Sigma-Aldrich, St. Louis, MO, USA). These were dissolved in the same buffer to the final concentration of 0.0075 U/mL. Finally, 50 μL of each ChE solution was added into the microtiter plate wells to start the reaction, which was followed spectrophotometrically at 405 nm at 25 °C over 5 min using a kinetic microplate reader (Dynex Technologies Inc., Chantilly, VA, USA). The blank reactions without the inhibitors were run with the appropriate dilutions of the solvents in which the tested compounds were initially diluted (100% MeOH or 5% aqueous DMSO), and the readings were corrected according to the appropriate blanks. Each measurement was repeated at least three times. […] The data were analysed using the OriginPro software (OriginPro 2020, OriginLab Corporation, Northampton, MA, USA).

Experiment [3] deals with T3, human recombinant AChE (hrAChE) (Homo sapiens, UniProt P22303).
T3 construct: purchased Sigma-Aldrich
T3 sequence (P22303 32-614): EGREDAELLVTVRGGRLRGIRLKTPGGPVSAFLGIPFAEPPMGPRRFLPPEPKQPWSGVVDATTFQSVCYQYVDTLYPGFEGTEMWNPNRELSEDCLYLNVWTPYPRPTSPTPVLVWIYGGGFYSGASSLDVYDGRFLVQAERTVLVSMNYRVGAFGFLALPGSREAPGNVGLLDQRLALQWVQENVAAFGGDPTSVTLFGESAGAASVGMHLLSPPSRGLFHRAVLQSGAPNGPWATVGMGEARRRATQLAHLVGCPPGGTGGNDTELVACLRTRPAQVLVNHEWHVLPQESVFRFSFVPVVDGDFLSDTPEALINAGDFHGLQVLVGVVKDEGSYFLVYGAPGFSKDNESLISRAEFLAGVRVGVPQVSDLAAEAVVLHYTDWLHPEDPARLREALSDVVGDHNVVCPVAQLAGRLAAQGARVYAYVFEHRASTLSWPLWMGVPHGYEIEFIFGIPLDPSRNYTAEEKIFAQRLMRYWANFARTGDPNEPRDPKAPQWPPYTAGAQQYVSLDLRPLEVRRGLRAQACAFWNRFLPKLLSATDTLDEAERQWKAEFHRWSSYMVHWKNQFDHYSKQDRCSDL
Description: Cholinesterase inhibition assay (modified Ellman method), hrAChE. The following applies: for type of inhibition of hrAChE: Dixon plots; for IC50: mean ± SEM of three independent measurements, / = No activity, read-out: Enzyme Inhibition hrAChE IC50. The format is biochemical. The procedure: as §2
(In general: DTNB colorimetry detects thiols as they appear.)

Experiment [4] concerns horse liver GST (hlGST). Description: Glutathione S-transferase inhibition assay (Habig method), hlGST. To be noted: for type of inhibition of hlGST: Dixon plots; for Ki: determined for compounds with IC50 < 33 μM, substrate 200, 400, 800 μM, read-out: Enzyme Inhibition hlGST Ki; for IC50: mean ± SEM of three independent measurements, / = No activity, read-out: Enzyme Inhibition hlGST IC50. It counts as biochemical. The procedure: as §1

Experiment [5] addresses T4, electric eel AChE (eeAChE) (Electrophorus electricus, UniProt O42275).
T4 construct: purchased Sigma-Aldrich
As to the kind of experiment: Cholinesterase inhibition assay (modified Ellman method), eeAChE. To be noted: for type of inhibition of eeAChE: Dixon plots; for IC50: mean ± SEM of three independent measurements, / = No activity, read-out: Enzyme Inhibition eeAChE IC50. The format is biochemical. Here is the method: as §2

Experiment [6] addresses T1, human placenta GST (hGST). The following applies: previously reported; read-out: Enzyme Inhibition hGST IC50; cited from earlier work.
In experiment [7] the target is T4, electric eel AChE (eeAChE). The following applies: previously reported; read-out: Enzyme Inhibition eeAChE IC50; cited from earlier work.
Experiment [8] deals with T3, human recombinant AChE (hrAChE). To be noted: previously reported; read-out: Enzyme Inhibition hrAChE IC50; cited from earlier work.
The test system of experiment [9] is horse liver GST (hlGST). To be noted: previously reported, cited from earlier work; for IC50: read-out: Enzyme Inhibition hlGST IC50.
The target in experiment [10] is T2, horse serum BChE (hsBChE). To be noted: previously reported; read-out: Enzyme Inhibition hsBChE IC50; cited from earlier work.

Read-outs that look alike come from different tables or passages of the source.

By Ki is commonly meant a measure of affinity in units of concentration, obtained from inhibition or displacement. By IC50 is commonly meant the midpoint of a concentration-inhibition curve.

T1 sequence (P09211 2-210 limits assumed): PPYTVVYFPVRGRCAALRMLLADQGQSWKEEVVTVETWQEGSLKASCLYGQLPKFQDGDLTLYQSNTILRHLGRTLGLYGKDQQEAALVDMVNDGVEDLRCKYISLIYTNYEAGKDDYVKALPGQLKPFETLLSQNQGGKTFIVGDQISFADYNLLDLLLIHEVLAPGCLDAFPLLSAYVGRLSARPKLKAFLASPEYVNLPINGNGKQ
T4 sequence (O42275 24-633): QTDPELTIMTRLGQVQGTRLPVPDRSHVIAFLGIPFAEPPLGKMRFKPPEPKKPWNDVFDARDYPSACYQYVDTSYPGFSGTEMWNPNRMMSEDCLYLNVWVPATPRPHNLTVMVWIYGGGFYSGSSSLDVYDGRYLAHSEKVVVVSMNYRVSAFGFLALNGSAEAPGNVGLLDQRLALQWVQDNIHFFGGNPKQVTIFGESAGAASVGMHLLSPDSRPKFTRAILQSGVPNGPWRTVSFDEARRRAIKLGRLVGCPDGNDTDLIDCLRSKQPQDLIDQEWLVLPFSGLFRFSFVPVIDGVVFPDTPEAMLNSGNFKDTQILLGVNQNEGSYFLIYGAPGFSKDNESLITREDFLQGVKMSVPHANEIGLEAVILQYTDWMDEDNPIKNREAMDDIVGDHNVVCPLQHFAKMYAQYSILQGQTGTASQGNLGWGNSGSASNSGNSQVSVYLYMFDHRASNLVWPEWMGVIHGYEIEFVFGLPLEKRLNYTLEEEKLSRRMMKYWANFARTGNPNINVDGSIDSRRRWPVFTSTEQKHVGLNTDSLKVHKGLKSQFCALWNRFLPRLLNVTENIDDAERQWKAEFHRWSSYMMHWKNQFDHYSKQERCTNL

On to [RuCym(L1)I] [Complex 3], for which, in experiment [1], the “type of inhibition of hGST” value is “reversible and competitive”; the Ki stood at 8.6 µM; the IC50 worked out at 16 ± 3 µM. The “type of inhibition of hsBChE” value in experiment [2] is “reversible and competitive”. The “type of inhibition of hrAChE” value in experiment [3] is “reversible and competitive”. In addition, in the experiment with horse liver GST (hlGST) [4], the “type of inhibition of hlGST” value is “reversible and competitive”; the Ki is 1.6 µM. For the same molecule, the “type of inhibition of eeAChE” value in experiment [5] is “reversible and competitive”.

For the molecule `Cc1ccc(C(C)C)cc1.FC(F)(F)C1=[O+][Ru-]([P+]23CN4CN(CN(C4)C2)C3)[O]C(c2ccccc2Br)=C1.F[P-](F)(F)(F)(F)F` [Complex 7, [RuCym(L2)pta]PF6], the IC50 in experiment [1] is greater than 100 µM; in [2], 19.2 ± 1.5 µM; in experiment [3] it was greater than 100 µM; on horse liver GST (hlGST) [4], greater than 100 µM; in experiment [5], greater than 100 µM. Further, the “type of inhibition of hsBChE” value in experiment [2] was “reversible and competitive”. Further, the Ki in experiment [2] (determined for compounds with IC50 < 33 μM, substrate 0.125, 0.25, 0.5 mM, read-out: Enzyme Inhibition hsBChE Ki) is 9.26 µM.

With `Cc1ccc(C(C)C)cc1.Cc1ccc(C(C)C)cc1.[Cl][Ru][Cl].[Cl][Ru][Cl]` [Precursor 9, dichloro(p-cymene) ruthenium(II) dimer [Ru(p-cymene)Cl2]2], the IC50 in experiment [6] was greater than 100 µM; in experiment [7] it was greater than 100 µM; in experiment [8], greater than 100 µM; in the experiment with horse liver GST (hlGST) [9], greater than 100 µM; in experiment [10], 32.7 ± 4.3 µM.

Consider `CN(C)C(=O)Oc1cccc([N+](C)(C)C)c1` [Neostigmine methylsulphate, reference compound], for which the IC50 in [1] was greater than 100 µM; in experiment [2], 92.7 ± 2.2 µM; on horse liver GST (hlGST) [4], greater than 100 µM; in [5], 5.98 ± 1 µM.

In the case of `O=C(CC(=O)C(F)(F)F)c1ccccc1Br` [Complex L2, 1-(2-bromophenyl)-4,4,4-trifluorobutane-1,3-dione, reference compound], the 50% inhibitory concentration (IC50) (in experiment [1]; in experiment [2]; in experiment [3]; at horse liver GST (hlGST) [4]; in experiment [5]) was greater than 100 µM in each case.

On to [RuCym(L1)Cl] [Complex 1], for which the concentration for half-maximal inhibition (IC50) in [6] is 45 ± 5.2 µM; in the experiment on horse liver GST (hlGST) [9], 2.26 ± 0.5 µM. Moreover, the Ki on horse liver GST (hlGST) [9] (read-out: Enzyme Inhibition hlGST Ki) is 10 µM.

Turning to `O=[C]=[Ru-2]12(=[C]=O)([O][n+]3ccccc3[S]1)[O][n+]1ccccc1[S]2` [Complex 8, [Ru(L1)2(CO)2]], the “type of inhibition of hGST” value in [1] was “reversible and competitive”. The Ki in experiment [1] was determined as 9.65 µM; at horse liver GST (hlGST) [4], 0.85 µM. Moreover, the half-maximal inhibitory concentration (IC50) in [1] is 16.6 ± 1.4 µM; in experiment [2] it was greater than 100 µM; in experiment [3], greater than 100 µM; in experiment [5], greater than 100 µM. Moreover, the “type of inhibition of hlGST” value in the experiment with horse liver GST (hlGST) [4] is “reversible and competitive”.

[RuCym(L1)pta]PF6 [Complex 6]: the IC50 on horse liver GST (hlGST) [4] was greater than 100 µM.

Take [RuCym(L1)Br] [Complex 2]: in [1], the “type of inhibition of hGST” value was “reversible and competitive”; the Ki stood at 4.08 µM; the IC50 amounted to 4.64 ± 3.7 µM. In [2], the “type of inhibition of hsBChE” value was “reversible and competitive”. The “type of inhibition of hrAChE” value in experiment [3] is “reversible and competitive”. Moreover, in the experiment on horse liver GST (hlGST) [4], the “type of inhibition of hlGST” value was “reversible and competitive”; the inhibition constant Ki worked out at 0.79 µM. For the same molecule, the “type of inhibition of eeAChE” value in experiment [5] was “reversible and competitive”.

For the molecule “1-hydroxypyridine-2(1H)-thione [Complex L1]”, the IC50 (in experiment [6]; in [7]; with horse liver GST (hlGST) [9]; in experiment [10]) was greater than 100 µM in each case.

As to `CCCCCCCCCCCCCCCCCC(=O)CC(=O)c1ccccc1` [Complex L3, 1-phenylicosane-1,3-dione, reference compound], the IC50 (in experiment [1]; in experiment [2]; in [3]; on horse liver GST (hlGST) [4]; in experiment [5]) was greater than 100 µM throughout.

Regarding “tricarbonyldichlororuthenium(II) dimer [Ru(CO)3Cl2]2 [Precursor 10, reference compound]”, in experiment [1], the “inhibition of hGST (in words)” value is recorded as “only weakly” and the half-inhibitory concentration (IC50) came out at 97.7 ± 1 µM. At horse liver GST (hlGST) [4], the inhibition constant (Ki) is 2.93 µM and the IC50 was 9.76 ± 0.4 µM.

The values are drawn from publication PMC8467340, “Fine Tuning of Cholinesterase and Glutathione-S-Transferase Activities by Organoruthenium(II) Complexes” (Biomedicines, 2021).
